Columns and labels:
Assay type in all cases: biochemical
[1] = target: PI3Kα (Homo sapiens, UniProt P42336); test: PI3K-alpha fluorescence polarization assay; details: read-out: PI3Kα Median IC50
[2] = target: PI3Kγ (Homo sapiens, UniProt P48736); test: PI3K-gamma fluorescence polarization assay; details: read-out: PI3Kγ Median IC50
[3] = target: mTOR (Homo sapiens, UniProt P42345); test: mTOR enzyme assay (DELFIA format, His6-S6K substrate); details: read-out: mTOR Kinase Median IC50

Chain of PI3Kγ (P48736 whole entry, species assumed): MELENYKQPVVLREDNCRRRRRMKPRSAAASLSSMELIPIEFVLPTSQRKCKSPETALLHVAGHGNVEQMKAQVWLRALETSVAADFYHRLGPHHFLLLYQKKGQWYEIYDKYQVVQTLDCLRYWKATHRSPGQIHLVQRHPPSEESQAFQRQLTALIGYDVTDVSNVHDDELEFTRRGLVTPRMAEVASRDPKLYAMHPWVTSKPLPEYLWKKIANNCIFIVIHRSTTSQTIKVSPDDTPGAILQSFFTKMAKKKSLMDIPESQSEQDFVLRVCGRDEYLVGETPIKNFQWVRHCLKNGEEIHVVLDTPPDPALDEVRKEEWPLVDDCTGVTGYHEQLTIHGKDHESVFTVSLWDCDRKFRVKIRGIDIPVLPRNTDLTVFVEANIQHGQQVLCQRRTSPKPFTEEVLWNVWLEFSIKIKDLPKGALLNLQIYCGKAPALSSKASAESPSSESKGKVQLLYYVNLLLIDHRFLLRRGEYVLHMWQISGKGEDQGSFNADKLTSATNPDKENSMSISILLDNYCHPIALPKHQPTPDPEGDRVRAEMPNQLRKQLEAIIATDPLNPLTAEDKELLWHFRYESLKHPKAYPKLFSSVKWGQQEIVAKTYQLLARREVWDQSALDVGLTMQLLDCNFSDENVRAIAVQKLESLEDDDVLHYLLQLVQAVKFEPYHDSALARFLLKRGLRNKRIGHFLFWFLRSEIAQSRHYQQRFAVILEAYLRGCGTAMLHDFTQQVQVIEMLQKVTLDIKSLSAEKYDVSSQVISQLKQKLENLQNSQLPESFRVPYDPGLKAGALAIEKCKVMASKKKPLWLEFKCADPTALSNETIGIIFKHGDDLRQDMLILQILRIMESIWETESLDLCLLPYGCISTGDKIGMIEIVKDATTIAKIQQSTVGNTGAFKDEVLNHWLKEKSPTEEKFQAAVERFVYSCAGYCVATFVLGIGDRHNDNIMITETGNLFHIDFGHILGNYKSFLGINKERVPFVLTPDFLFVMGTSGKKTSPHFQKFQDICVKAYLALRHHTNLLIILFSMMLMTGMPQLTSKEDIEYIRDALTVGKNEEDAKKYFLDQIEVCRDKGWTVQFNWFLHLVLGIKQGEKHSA
Chain of PI3Kα (P42336 whole entry, species assumed): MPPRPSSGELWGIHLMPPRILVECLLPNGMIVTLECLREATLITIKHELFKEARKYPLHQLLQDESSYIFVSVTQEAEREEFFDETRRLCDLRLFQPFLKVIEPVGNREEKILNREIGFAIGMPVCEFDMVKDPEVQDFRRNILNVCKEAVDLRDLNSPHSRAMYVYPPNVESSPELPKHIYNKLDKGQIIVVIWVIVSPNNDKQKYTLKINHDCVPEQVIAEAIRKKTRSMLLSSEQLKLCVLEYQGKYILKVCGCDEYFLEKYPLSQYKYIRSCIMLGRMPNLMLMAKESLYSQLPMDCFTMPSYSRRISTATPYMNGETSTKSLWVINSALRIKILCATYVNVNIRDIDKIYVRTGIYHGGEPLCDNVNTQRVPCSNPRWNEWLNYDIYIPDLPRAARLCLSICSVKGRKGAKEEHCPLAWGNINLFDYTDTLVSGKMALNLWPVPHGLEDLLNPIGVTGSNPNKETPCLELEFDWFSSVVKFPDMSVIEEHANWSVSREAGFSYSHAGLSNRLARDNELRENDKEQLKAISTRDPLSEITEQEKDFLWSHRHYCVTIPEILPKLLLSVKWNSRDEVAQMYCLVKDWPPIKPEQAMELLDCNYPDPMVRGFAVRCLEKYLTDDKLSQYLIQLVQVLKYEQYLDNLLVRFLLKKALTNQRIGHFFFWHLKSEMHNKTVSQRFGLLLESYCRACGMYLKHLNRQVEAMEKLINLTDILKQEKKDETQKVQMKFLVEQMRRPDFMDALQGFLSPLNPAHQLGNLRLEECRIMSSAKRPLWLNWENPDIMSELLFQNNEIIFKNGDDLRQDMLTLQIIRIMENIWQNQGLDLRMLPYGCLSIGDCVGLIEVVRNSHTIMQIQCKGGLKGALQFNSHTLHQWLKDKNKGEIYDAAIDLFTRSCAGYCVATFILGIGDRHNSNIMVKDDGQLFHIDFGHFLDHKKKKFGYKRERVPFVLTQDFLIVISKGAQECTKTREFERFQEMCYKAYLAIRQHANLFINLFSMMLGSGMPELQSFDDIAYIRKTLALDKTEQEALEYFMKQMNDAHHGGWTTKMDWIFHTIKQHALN
Chain of PI3Kα (P27986 whole entry partner, species assumed): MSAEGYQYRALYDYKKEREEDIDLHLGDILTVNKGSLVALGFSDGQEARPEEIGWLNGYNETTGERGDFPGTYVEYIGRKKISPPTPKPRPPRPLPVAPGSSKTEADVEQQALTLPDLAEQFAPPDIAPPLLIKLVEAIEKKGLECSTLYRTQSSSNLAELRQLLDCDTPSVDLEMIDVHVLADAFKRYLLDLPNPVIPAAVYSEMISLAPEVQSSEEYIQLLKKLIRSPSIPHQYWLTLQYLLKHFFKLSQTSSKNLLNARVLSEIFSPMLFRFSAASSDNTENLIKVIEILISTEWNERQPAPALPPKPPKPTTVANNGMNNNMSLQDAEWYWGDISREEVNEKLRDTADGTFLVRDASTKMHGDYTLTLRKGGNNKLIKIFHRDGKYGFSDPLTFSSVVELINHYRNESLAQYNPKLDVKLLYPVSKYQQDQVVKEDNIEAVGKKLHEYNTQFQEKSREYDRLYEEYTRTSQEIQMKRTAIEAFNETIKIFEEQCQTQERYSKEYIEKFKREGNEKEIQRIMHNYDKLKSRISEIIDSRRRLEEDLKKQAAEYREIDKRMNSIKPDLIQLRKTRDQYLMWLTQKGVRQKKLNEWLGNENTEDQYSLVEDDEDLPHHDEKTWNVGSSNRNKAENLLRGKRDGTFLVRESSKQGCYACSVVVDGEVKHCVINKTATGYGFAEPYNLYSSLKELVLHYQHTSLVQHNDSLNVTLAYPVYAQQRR

SMILES	IC50 [1] [µM]	IC50 [2] [µM]	IC50 [3] [µM]
COCCNC(=O)c1ccc(-c2ccnc3c2c(/C=C2\Oc4cccc(O)c4C2=O)cn3C)cc1 [Compound 149, 4-{3-[(Z)-(4-hydroxy-3-oxo-1-benzofuran-2(3H)-ylidene)methyl]-1-methyl-1H-pyrrolo[2,3-b]pyridin-4-yl}-N-(2-methoxyethyl)benzamide]	0.048	0.062	0.0017
CN(C)CCOc1cccc2c1C(=O)/C(=C/c1cn(C)c3nccc(-c4ccccc4)c13)O2 [Compound 159, (2Z)-4-[2-(dimethylamino)ethoxy]-2-[(1-methyl-4-phenyl-1H-pyrrolo[2,3-b]pyridin-3-yl)methylidene]-1-benzofuran-3(2H)-one]	1.45	4.15	0.0705
CCOC(=O)Nc1ccc2c(c1)C(=O)/C(=C/c1cn(C)c3nccc(N4CCC(C(=O)N(C)C)CC4)c13)O2 [Compound 171, ethyl[(2Z)-2-({4-[4-(dimethylcarbamoyl)piperidin-1-yl]-1-methyl-1H-pyrrolo[2,3-b]pyridin-3-yl}methylidene)-3-oxo-2,3-dihydro-1-benzofuran-5-yl]carbamate]	2	8.75	0.0665
Cn1cc(/C=C2\Oc3ccc(NC(=O)Nc4ccccc4)cc3C2=O)c2c(N3CC4CCC(C3)O4)ccnc21 [Compound 172, 1-[(2Z)-2-{[1-methyl-4-(8-oxa-3-azabicyclo[3.2.1]oct-3-yl)-1H-pyrrolo[2,3-b]pyridin-3-yl]methylidene}-3-oxo-2,3-dihydro-1-benzofuran-5-yl]-3-phenylurea]	0.498	1.12	0.145
COCCN(C)C(=O)c1ccc(-c2ccnc3c2c(/C=C2\Oc4cccc(O)c4C2=O)cn3C)cc1 [Compound 175, 4-{3-[(Z)-(4-hydroxy-3-oxo-1-benzofuran-2(3H)-ylidene)methyl]-1-methyl-1H-pyrrolo[2,3-b]pyridin-4-yl}-N-(2-methoxyethyl)-N-methylbenzamide]	0.073	0.152	0.0009
CCn1cc(/C=C2\Oc3ccc(NC(=O)Nc4cccnc4)cc3C2=O)c2c(-c3ccc(C(=O)N4CCN(CCO)CC4)cc3)ccnc21 [Compound 177, 1-[(2Z)-2-{[1-ethyl-4-(4-{[4-(2-hydroxyethyl)piperazin-1-yl]carbonyl}phenyl)-1H-pyrrolo[2,3-b]pyridin-3-yl]methylidene}-3-oxo-2,3-dihydro-1-benzofuran-5-yl]-3-pyridin-3-ylurea]	2.69	2.37	0.066

Further compounds by falling IC50 [1], results first:

IC50 [1] [µM]	IC50 [2] [µM]	IC50 [3] [µM]	SMILES
0.252	0.343	0.0155	CNC(=O)Nc1ccc2c(c1)C(=O)/C(=C/c1cn(C)c3nccc(-c4ccc(C(=O)N5CCN(CCO)CC5)cc4)c13)O2 [Compound 166, 1-[(2Z)-2-{[4-(4-{[4-(2-hydroxyethyl)piperazin-1-yl]carbonyl}phenyl)-1-methyl-1H-pyrrolo[2,3-b]pyridin-3-yl]methylidene}-3-oxo-2,3-dihydro-1-benzofuran-5-yl]-3-methylurea]
0.179	0.149	0.0086	CN(C)CCNC(=O)c1ccc(-c2ccnc3c2c(/C=C2\Oc4cccc(O)c4C2=O)cn3C)cc1 [Compound 158, N-[2-(dimethylamino)ethyl]-4-{3-[(Z)-(4-hydroxy-3-oxo-1-benzofuran-2(3H)-ylidene)methyl]-1-methyl-1H-pyrrolo[2,3-b]pyridin-4-yl}benzamide]
0.025	0.144	0.0027	Cn1cc(/C=C2\Oc3cccc(O)c3C2=O)c2c(N3CC4COC(C3)O4)ccnc21 (stereo not drawn) [Compound 165, (2Z)-2-{[4-(6,8-dioxa-3-azabicyclo[3.2.1]oct-3-yl)-1-methyl-1H-pyrrolo[2,3-b]pyridin-3-yl]methylidene}-4-hydroxy-1-benzofuran-3(2H)-one]

— patent US20090298820A1, “3-SUBSTITUTED-1H-PYRROLO[2,3-B]PYRIDINE AND 3-SUBSTITUTED-1H-PYRROLO[3,2-B]PYRIDINE COMPOUNDS, THEIR USE AS MTOR KINASE AND PI3 KINASE INHIBITORS, AND THEIR SYNTHESES” (Wyeth, priority 2008, published 2009)
